Molecules are shown by their SMILES.

T1 sequence (P23458 866-1154 limits assumed): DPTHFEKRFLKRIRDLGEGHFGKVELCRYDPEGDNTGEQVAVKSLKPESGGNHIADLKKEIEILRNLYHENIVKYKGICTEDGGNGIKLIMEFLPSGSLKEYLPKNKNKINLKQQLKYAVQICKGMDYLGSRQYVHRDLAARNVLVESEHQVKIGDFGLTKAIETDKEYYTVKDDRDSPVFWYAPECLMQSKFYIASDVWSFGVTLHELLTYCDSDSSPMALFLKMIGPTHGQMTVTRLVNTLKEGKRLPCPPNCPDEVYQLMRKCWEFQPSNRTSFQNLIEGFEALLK

This test has as its target T1, JAK1 kinase (Homo sapiens, UniProt P23458).
T1 construct: purchased Invitrogen PV4744
The experiment in a line: In vitro inhibitory activity on JAK1 kinase (ADP-Glo Kinase Assay). Type of test: biochemical. The settings on record: JAK1 kinase 4 nM, 1 mM ATP. The protocol:
Test Example 1: Determination of In Vitro Inhibitory Activity of the Compounds of the Present Invention on JAK1 Kinase Experimental materials: JAK1 kinase (Invitrogen, PV4744), ATP (Promega, V915B), ADP-Glo Kinase Assay (Promega, V9101), IRS1 (Signalchem, 140-58-1000). Sample preparation: The compounds of the present invention and the control product were dissolved in DMSO solvent respectively to formulate into 10 mM initial liquid. The maximum concentration of the compound was 10 μM, 3-fold dilution, 10 concentration gradients, and duplicate wells for each concentration gradient. Experimental processs: 0.1 μL of the compound to be tested was transferred into a 384 reaction plate (PE, 6007290) via Echo and centrifuged at 1000 rpm/min for 1 min. 5 μL JAK1 kinase (final concentration of 4 nM) was transferred into the 384 reaction plate, which was then centrifuged at 1000 rpm/min for 1 min, and incubated at 25° C. for 15 min. 5 μL substrate mixture (1 mM ATP, IRS1 0.05 mg/ml, kinase buffer solution) was transferred into the 384 reaction plate, which was then centrifuged at 1000 rpm/min for 1 min, and incubated at 25° C. for 60 min. 10 μL ADP-Glo was transferred into the 384 reaction plate, which was then centrifuged at 1000 rpm/min for 1 min, and incubated at 25° C. for 40 min. 20 μL test solution was transferred into the 384 reaction plate, which was then centrifuged at 1000 rpm/min for 1 min and incubated at 25° C. for 40 min. RLU (Relative luminescence unit) signal was read by using an Envision multifunctional plate reader. The signal intensity was used to characterize the degree of the kinase activity. […] IC50 value of 0-100 nM is shown as A, IC50 value of 100-300 nM is shown as B, IC50 value of 300-1000 nM is shown as C, and IC50 value which is greater than 1000 nM is shown as D. NT means not tested.
For orientation: In ADP-Glo the light output rises with the ADP produced.
On to `Cn1cc(Nc2ncc(Cl)c(C3=C[C@@H]4CC[C@H](C3)N4C(=O)[C@@H]3CC3(F)F)n2)cn1` [Compound 23-a, ((1S,5R)-3-(5-chloro-2-((1-methyl-1H-pyrazol-4-yl)amino)pyrimidin-4-yl)-8-azabicyclo[3.2.1]oct-2-en-8-yl)((S)-2,2-difluorocyclopropyl)methanone], for which the IC50 – broadly, the point on the concentration scale where inhibition reaches its midpoint – was less than 100 nM.
On to `Cn1cc(Nc2ncc(Cl)c(C3=C[C@H]4CC[C@@H](C3)N4C(=O)[C@@H]3CC3(F)F)n2)cn1` [Compound 23-b, ((1R,5S)-3-(5-chloro-2-((1-methyl-1H-pyrazol-4-yl)amino)pyrimidin-4-yl)-8-azabicyclo[3.2.1]oct-2-en-8-yl)((S)-2,2-difluorocyclopropyl)methanone], for which the IC50 was less than 100 nM.
`O=C(NCC(F)(F)F)N1C2C=C(c3nc(Nc4cnn(C(F)F)c4)ncc3F)CC1CC2` (stereo not drawn) [Compound 24, 3-(2-((1-(difluoromethyl)-1H-pyrazol-4-yl)amino)-5-fluoropyrimidin-4-yl)-N-(2,2,2-trifluoroethyl)-8-azabicyclo[3.2.1]oct-2-ene-8-carboxamide] showed an IC50 of less than 100 nM.
Next, `Cn1cc(Nc2ncc(C(F)(F)F)c(C3=CC4CCC(C3)N4C(=O)NCC(F)(F)F)n2)cn1` (stereo not drawn) [Compound 25, 3-(2-((1-Methyl-1H-pyrazol-4-yl)amino)-5-(trifluoromethyl)pyrimidin-4-yl)-N-(2,2,2-trifluoroethyl)-8-azabicyclo[3.2.1]oct-2-ene-8-carboxamide]: 300 to 1000 nM; `Cc1cnc(Nc2cn(C)nc2C)nc1C1=CC2CCC(C1)N2C(=O)NCC(F)(F)F` (stereo not drawn) [Compound 26, 3-(2-((1,3-dimethyl-1H-pyrazol-4-yl)amino)-5-methylpyrimidin-4-yl)-N-(2,2,2-trifluoroethyl)-8-azabicyclo[3.2.1]oct-2-ene-8-carboxamide]: less than 100 nM; `Cc1cnc(Nc2cn(C)nc2C)nc1C1=C[C@@H]2CC[C@H](C1)N2C(=O)NCC(F)(F)F` [Compound 26-a, (1S,5R)-3-(2-((1,3-dimethyl-1H-pyrazol-4-yl)amino)-5-methylpyrimidin-4-yl)-N-(2,2,2-trifluoroethyl)-8-azabicyclo[3.2.1]oct-2-ene-8-carboxamide]: more than 1000 nM.
Next, `Cc1cnc(Nc2cn(C)nc2C)nc1C1=C[C@H]2CC[C@@H](C1)N2C(=O)NCC(F)(F)F` [Compound 26-b, (1R,5S)-3-(2-((1,3-dimethyl-1H-pyrazol-4-yl)amino)-5-methylpyrimidin-4-yl)-N-(2,2,2-trifluoroethyl)-8-azabicyclo[3.2.1]oct-2-ene-8-carboxamide]: less than 100 nM; `Cc1cnc(Nc2cnn(C)c2C)nc1C1=CC2CCC(C1)N2C(=O)NCC(F)(F)F` (stereo not drawn) [Compound 27, 3-(2-((1,5-dimethyl-1H-pyrazol-4-yl)amino)-5-methylpyrimidin-4-yl)-N-(2,2,2-trifluoroethyl)-8-azabicyclo[3.2.1]oct-2-ene-8-carboxamide]: 300 to 1000 nM.
Take `Cc1cnc(Nc2cnn(CCO)c2)nc1C1=CC2CCC(C1)N2C(=O)NCC(F)(F)F` (stereo not drawn) [Compound 28, 3-(2-((1-(2-hydroxyethyl)-1H-pyrazol-4-yl)amino)-5-methylpyrimidin-4-yl)-N-(2,2,2-trifluoroethyl)-8-azabicyclo[3.2.1]oct-2-ene-8-carboxamide]: the half-inhibitory concentration (IC50) is less than 100 nM.
For `Cc1cnc(Nc2cnn(CC(C)(C)O)c2)nc1C1=CC2CCC(C1)N2C(=O)NCC(F)(F)F` (stereo not drawn) [Compound 29, 3-(2-((1-(2-hydroxy-2-methylpropyl)-1H-pyrazol-4-yl)amino)-5-methylpyrimidin-4-yl)-N-(2,2,2-trifluoroethyl)-8-azabicyclo[3.2.1]oct-2-ene-8-carboxamide] the value was less than 100 nM; for `Cc1cnc(Nc2cnn(CC(C)(C)O)c2)nc1C1=C[C@H]2CC[C@@H](C1)N2C(=O)NCC(F)(F)F` [Compound 29-b, (1R,5S)-3-(2-((1-(2-Hydroxy-2-methylpropyl)-1H-pyrazol-4-yl)amino)-5-methylpyrimidin-4-yl)-N-(2,2,2-trifluoroethyl)-8-azabicyclo[3.2.1]oct-2-ene-8-carboxamide], less than 100 nM; for `Cc1cnc(Nc2cnn(C3COC3)c2)nc1C1=CC2CCC(C1)N2C(=O)NCC(F)(F)F` (stereo not drawn) [Compound 30, 3-(5-Methyl-2-((1-(oxetan-3-yl)-1H-pyrazol-4-yl)amino)pyrimidin-4-yl)-N-(2,2,2-trifluoroethyl)-8-azabicyclo[3.2.1]oct-2-ene-8-carboxamide], less than 100 nM.
For `Cc1cnc(Nc2cnn(C3CC3)c2)nc1C1=CC2CCC(C1)N2C(=O)NCC(F)(F)F` (stereo not drawn) [Compound 31, 3-(2-((1-Cyclopropyl-1H-pyrazol-4-yl)amino)-5-methylpyrimidin-4-yl)-N-(2,2,2-trifluoroethyl)-8-azabicyclo[3.2.1]oct-2-ene-8-carboxamide], the IC50 is less than 100 nM.
For `Cc1cnc(Nc2cnn(C)c2Cl)nc1C1=CC2CCC(C1)N2C(=O)NCC(F)(F)F` (stereo not drawn) [Compound 32, 3-(2-((5-chloro-1-methyl-1H-pyrazol-4-yl)amino)-5-methylpyrimidin-4-yl)-N-(2,2,2-trifluoroethyl)-8-azabicyclo[3.2.1]oct-2-ene-8-carboxamide] the value was 100 to 300 nM; for `Cn1cc(Nc2nccc(C3=CC4CCC(C3)N4C(=O)NC3(C(F)(F)F)CC3)n2)cn1` (stereo not drawn) [Compound 33, 3-(2-((1-methyl-1H-pyrazol-4-yl)amino)pyrimidin-4-yl)-N-(1-(trifluoromethyl)cyclopropyl)-8-azabicyclo[3.2.1]oct-2-ene-8-carboxamide], less than 100 nM; for `Cn1cc(Nc2ncc(S(C)(=O)=O)c(C3=CC4CCC(C3)N4C(=O)NCC(F)(F)F)n2)cn1` (stereo not drawn) [Compound 34, 3-(2-((1-methyl-1H-pyrazol-4-yl)amino)-5-(methylsulfonyl)pyrimidin-4-yl)-N-(2,2,2-trifluoroethyl)-8-azabicyclo[3.2.1]oct-2-ene-8-carboxamide], more than 1000 nM.
For `Cn1cc(Nc2ncc(C#N)c(C3=CC4CCC(C3)N4C(=O)NCC(F)(F)F)n2)cn1` (stereo not drawn) [Compound 35, 3-(5-cyano-2-((1-methyl-1H-pyrazol-4-yl)amino)pyrimidin-4-yl)-N-(2,2,2-trifluoroethyl)-8-azabicyclo[3.2.1]oct-2-ene-8-carboxamide] the value was 100 to 300 nM; for `O=C([C@@H]1CC1(F)F)N1C2C=C(c3ccnc(Nc4cnn(C5CC5)c4)n3)CC1CC2` (stereo partly drawn) [Compound 36, (3-(2-((1-cyclopropyl-1H-pyrazol-4-yl)amino)pyrimidin-4-yl)-8-azabicyclo[3.2.1]oct-2-en-8-yl)((S)-2,2-difluorocyclopropyl)methanone], 100 to 300 nM.
`O=C([C@@H]1CC1(F)F)N1C2C=C(c3ccnc(Nc4cnn(C5COC5)c4)n3)CC1CC2` (stereo partly drawn) [Compound 37, ((S)-2,2-difluorocyclopropyl)(3-(2-((1-(oxetan-3-yl)-1H-pyrazol-4-yl)amino)pyrimidin-4-yl)-8-azabicyclo[3.2.1]oct-2-en-8-yl)methanone] displayed an IC50 of 300 to 1000 nM.
Next, `NC(=O)Cn1cc(Nc2nccc(C3=CC4CCC(C3)N4C(=O)[C@@H]3CC3(F)F)n2)cn1` (stereo partly drawn) [Compound 38, 2-(4-((4-(8-((S)-2,2-Difluorocyclopropane-1-formyl)-8-azabicyclo[3.2.1]oct-2-en-3-yl)pyrimidin-2-yl)amino)-1H-pyrazol-1-yl)acetamide]: less than 100 nM; `NC(=O)C1(n2cc(Nc3nccc(C4=CC5CCC(C4)N5C(=O)[C@@H]4CC4(F)F)n3)cn2)CC1` (stereo partly drawn) [Compound 39, 1-(4-((4-(8-((S)-2,2-Difluorocyclopropane-1-carbonyl)-8-azabicyclo[3.2.1]oct-2-en-3-yl)pyrimidin-2-yl)amino)-1H-pyrazol-1-yl)cyclopropane-1-carboxamide]: more than 1000 nM.
Next, `O=C([C@@H]1CC1(F)F)N1C2C=C(c3ccnc(Nc4cnn(CCO)c4)n3)CC1CC2` (stereo partly drawn) [Compound 40, ((S)-2,2-difluorocyclopropyl)(3-(2-((1-(2-hydroxyethyl)-1H-pyrazol-4-yl)amino)pyrimidin-4-yl)-8-azabicyclo[3.2.1]oct-2-en-8-yl)methanone]: 100 to 300 nM.
Next, `CC(C)(O)Cn1cc(Nc2nccc(C3=CC4CCC(C3)N4C(=O)[C@@H]3CC3(F)F)n2)cn1` (stereo partly drawn) [Compound 41, ((S)-2,2-Difluorocyclopropyl)(3-(2-((1-(2-hydroxy-2-methylpropyl)-1H-pyrazol-4-yl)amino)pyrimidin-4-yl)-8-azabicyclo[3.2.1]oct-2-en-8-yl)methanone]: 100 to 300 nM; `O=C(NCC(F)(F)F)N1C2C=C(c3ccnc(Nc4cnn(CCO)c4)n3)CC1CC2` (stereo not drawn) [Compound 42, 3-(2-((1-(2-hydroxyethyl)-1H-pyrazol-4-yl)amino)pyrimidin-4-yl)-N-(2,2,2-trifluoroethyl)-8-azabicyclo[3.2.1]oct-2-ene-8-carboxamide]: less than 100 nM.

The values are drawn from patent US20220348572A1, “BRIDGED HETEROCYCLYL-SUBSTITUTED PYRIMIDINE COMPOUND, PREPARATION METHOD THEREFOR, AND PHARMACEUTICAL USE THEREOF” (The National Institutes of Pharmaceutical R&D Co., Ltd., priority 2019, published 2022).
